The values below are quoted from earlier work in PubChem BioAssay AID1259410 (Chemical Carcinogenesis Research Information System (CCRIS), 2018).

For the series, the system named is rodent tumor promotion studies, tumor incidence. As to the kind of experiment: CCRIS tumor promotion studies. To be noted: Doses [Promoter]: 0.

On to `C[C@]12CC[C@@H]3c4ccc(O)cc4CC[C@H]3[C@@H]1CC[C@@H]2O`, for which the outcome by setting is: (Carcinogen: N-ETHYL-N-NITROSOUREA, 759-73-9, Doses [Carcinogen]: 12.5 MG/KG IN POLYETHYLENE GLYCOL ONCE, 0.32 MG/PELLET IMPLANTED IN PERSISTENT ESTRUS MICE 1 WK PRIOR TO CARCINOGEN DOSE (STUDY DURATION: 16 WK), Route [Carcinogen]: INTRAUTERINE, Route [Promoter]: SUBCUTANEOUS, Species: MOUSE, Strain/Sex: CD-1/FEMALE) “uterus: adenocarcinoma”; (Carcinogen: N-ETHYL-N-NITROSOUREA, 759-73-9, Doses [Carcinogen]: 50 MG/KG BW IN POLYETHYLENE GLYCOL ONCE AT 10 WK OF AGE, 0.5% IN CHOLESTEROL PELLET AT 9 WK OF AGE, REMOVED AFTER 8 WK (STUDY DURATION: 15 WK), Route [Carcinogen]: INTRAUTERINE, Route [Promoter]: SUBCUTANEOUS IMPLANT, Species: MOUSE, Strain/Sex: CD-1/FEMALE) “uterus: tumor”; (Carcinogen: N-ETHYL-N-NITROSOUREA, 759-73-9, Doses [Carcinogen]: 50 MG/KG BW IN POLYETHYLENE GLYCOL ONCE AT 10 WK OF AGE, 0.5% IN CHOLESTEROL PELLET AT 11 WK OF AGE, REMOVED AFTER 8 WK (STUDY DURATION: 15 WK), Route [Carcinogen]: INTRAUTERINE, Route [Promoter]: SUBCUTANEOUS IMPLANT, Species: MOUSE, Strain/Sex: CD-1/FEMALE) “uterus: tumor”; (Carcinogen: N-ETHYL-N-NITROSOUREA, 759-73-9, Doses [Carcinogen]: 50 MG/KG BW IN POLYETHYLENE GLYCOL ONCE AT 10 WK OF AGE, 0.5% IN CHOLESTEROL PELLET AT 14 WK OF AGE, REMOVED AFTER 8 WK (STUDY DURATION: 15 WK), Route [Carcinogen]: INTRAUTERINE, Route [Promoter]: SUBCUTANEOUS IMPLANT, Species: MOUSE, Strain/Sex: CD-1/FEMALE) “uterus: tumor”; (Carcinogen: N-ETHYL-N-NITROSOUREA, 759-73-9, Doses [Carcinogen]: 50 MG/KG BW IN POLYETHYLENE GLYCOL ONCE AT 10 WK OF AGE, 0.5% IN CHOLESTEROL PELLET AT 17 WK OF AGE, REMOVED AFTER 8 WK (STUDY DURATION: 15 WK), Route [Carcinogen]: INTRAUTERINE, Route [Promoter]: SUBCUTANEOUS IMPLANT, Species: MOUSE, Strain/Sex: CD-1/FEMALE) “uterus: tumor”; (Carcinogen: N-METHYL-N'-NITRO-N-NITROSOGUANIDINE, 70-25-7, Doses [Carcinogen]: 50 PPM FOR 60 MIN, 20 PPM IN DIET BEGINNING 14 WK POST CARCINOGEN DOSE (STUDY DURATION: 12 MO), Route [Carcinogen]: IMMERSION, Route [Promoter]: ORAL, Species: FISH, Strain/Sex: RAINBOW TROUT) “liver: tumor”. For the same compound, the outcome is listed as “uterus: adenocarcinoma” (Carcinogen: N-METHYL-N-NITROSOUREA, 684-93-5, Doses [Carcinogen]: 1 MG/100 G BW INJECTED INTO LEFT UTERINE TUBE ONCE, 25 PPM IN DIET FOR 29 WK BEGINNING 1 WK POST CARCINOGEN DOSE (STUDY DURATION: 30 WK), Route [Carcinogen]: INJECTION, Route [Promoter]: ORAL, Species: MOUSE, Strain/Sex: ICR/FEMALE); “thyroid: adenoma, carcinoma” (Carcinogen: N-METHYL-N-NITROSOUREA, 684-93-5, Doses [Carcinogen]: 40 MG/KG ONCE AT 50 D OF AGE, 2.5 MG PELLET IMPLANTED ON BACK OF GONADECTOMIZED RATS MAINTAINED ON LOW- IODINE DIET (STUDY DURATION: 30 WK), Route [Carcinogen]: INTRAVENOUS, Route [Promoter]: SUBCUTANEOUS IMPLANT, Species: RAT, Strain/Sex: LONG-EVANS/FEMALE); “thyroid: adenoma, carcinoma” (Carcinogen: N-METHYL-N-NITROSOUREA, 684-93-5, Doses [Carcinogen]: 40 MG/KG ONCE AT 50 D OF AGE, 2.5 MG PELLET IMPLANTED ON BACK OF GONADECTOMIZED RATS MAINTAINED ON LOW- IODINE DIET (STUDY DURATION: 30 WK), Route [Carcinogen]: INTRAVENOUS, Route [Promoter]: SUBCUTANEOUS IMPLANT, Species: RAT, Strain/Sex: LONG-EVANS/MALE); “liver: hepatocellular carcinoma or mixed carcinoma or hepatocellular adenoma” (Doses [Carcinogen]: 0, 125 PPM IN STATIC SOLUTIONS OF WATER FOR 30 MIN ADMINISTERED TO 21 DAY OLD EMBRYOS, 20 PPM BEGINNING 6 WK POST CARCINOGEN TREATMENT AND CONTINUING FOR 5 WK FOLLOWED BY CONTROL DIET FOR 1 WK THEN 0, 10, 20 PPM BEGINNING 6 WK POST CARCINOGEN TREATMENT AND CONTINUING FOR 5 WK FOLLOWED BY CONTROL DIET FOR 1 WK THEN 0, 10, Route [Carcinogen]: IMMERSION, Route [Promoter]: ORAL, Species: FISH, Strain/Sex: MT. SHASTA RAINBOW TROUT); “liver: hepatocellular carcinoma or mixed carcinoma” (Doses [Carcinogen]: 0.025 PPM IN STATIC SOLUTIONS OF WATER FOR 30 MIN ADMINISTERED TO 21 DAY OLD EMBRYOS, 20 PPM BEGINNING 6 WK POST CARCINOGEN TREATMENT AND CONTINUING FOR 5 WK FOLLOWED BY CONTROL DIET FOR 1 WK THEN 0, 10, 20 PPM BEGINNING 6 WK POST CARCINOGEN TREATMENT AND CONTINUING FOR 5 WK FOLLOWED BY CONTROL DIET FOR 1 WK THEN 0, 10, Route [Carcinogen]: IMMERSION, Route [Promoter]: ORAL, Species: FISH, Strain/Sex: MT. SHASTA RAINBOW TROUT); “liver: hepatocellular carcinoma or mixed carcinoma” (Doses [Carcinogen]: 0.25 PPM IN STATIC SOLUTIONS OF WATER FOR 30 MIN, 5 PPM IN DIET BEGINNING 5 WK POST CARCINOGEN TREATMENT AND ALTERNATED EVERY OTHER WK WITH CONTROL DIET FOR DURATION O, Route [Carcinogen]: IMMERSION, Route [Promoter]: ORAL, Species: FISH, Strain/Sex: MT. SHASTA RAINBOW TROUT). Where the note is “Doses [Carcinogen]: 0.5 PPM FOR 30 MIN, 20 PPM IN DIET BEGINNING 14 WK POST CARCINOGEN DOSE (STUDY DURATION: 12 MO), Route [Carcinogen]: IMMERSION, Route [Promoter]: ORAL, Species: FISH, Strain/Sex: RAINBOW TROUT”, the outcome is on record as “liver: tumor”.
